Each structure is given as a SMILES string.

We go through 3 compounds from patent US9089546B2, “Synergistic compositions consisting essentially of combinations of active agents selected from oridonin, wogonin, and isoliquiritigenin for the prevention of neoplasia” (ACTIVEPHYTO TECHNOLOGIES LIMITED, priority 2006, dated 2015).

What all share (format): cell-based
For test [1], the system named is human ovarian cancer cell lines A2780 (sensitive) and PTX-10 (resistant to taxol). In words: Antiproliferative activity, MTT cell viability assay, first set of experiments (72 h), comparison of the two cell lines. Particulars: A2780 versus taxol-resistant PTX-10. From the text: The present investigation uses two types of cancer cells: A2780 and PTX-10. A2780 is typical of most human ovarian cancers and is not known to be drug-resistant. PTX10 is a taxol-resistant variant of A2780. These two cell types provide a model to compare the effectiveness of the compositions of the present invention against a typical ovarian human cancer where taxol would be a useful treatment and a tumour line where taxol is not useful in treatment.
Cell lines: A2780 and PTX-10 cell lines were from National Institute of Health, Bethesda, Md.
Cell Culture: Both cell lines were cultured in RPMI 1640 supplemented with 10% foetal bovine serum, L-glutamine and antibiotics according to the method of Halicka et al. (Int. J. Oncology 1:437-48, 1997). All media, supplements, and antibiotics were obtained from Life Technologies (Grand Island, N.Y.). The cultures were periodically tested for Mycoplasma infection.
To maintain asynchronous exponential growth, these adherent cells were routinely seeded at 3×10^5 in a T-75 flask and incubated at 37° C. in 5% CO2 for 5-6 days and then repassaged at a 1:10 dilution by trypsinisation (0.25% trypsin/1 mM EDTA). Morphological changes and cell counts of the control and treated cancer cells were determined by light microscopy. Only exponentially and asynchronously growing cells were used in all experiments.
Inhibition of Cell-Growth and Viability AssASYS: The MTT reagent kit was purchased from Boehringer Mannheim (Roche Diagnosis Corp, Indianapolis, Ind.) to count viable cells. […] The protocol for the cell viability assay was provided by the manufacturer and modified in our laboratory as described below: […]
The plates were incubated at 37° C. in the CO2 incubator for 72 hours. […] The plate was allowed to stand overnight in the CO2 incubator and read by ELISA Reader (EL800, Bio-Tek Instruments, Inc.) at a wavelength of 570 nm. The percent cell viability was calculated according to the equation below: 100% (absorption of the control cells−absorption of the treated cells)/absorption of the control cells. […]

The test system of another test is A2780. In words: MTT assay, second set of experiments (Experiment 4), single agents. Particulars: Homo sapiens. As to the method: (§1) Inhibition of Cell-Growth and Viability […]: The MTT reagent kit was purchased from Boehringer Mannheim (Roche Diagnosis Corp, Indianapolis, Ind.) to count viable cells. […] The protocol for the cell viability assay was provided by the manufacturer and modified in our laboratory as described below: Ovarian cancer cells were seeded in 96 well microtiter plates at a concentration of 6×10^3 cells per well, in a volume of 100 μL of cell culture medium. After 24 hours, 20 μL aliquots of the compounds at various concentrations were added to the attached cells. Each concentration was plated into 3 wells to obtain mean values. To eliminate any solvent effect, 20 μL of the solvent used in the preparation of the highest concentration of the compounds (a maximum of 0.5% by volume of DMSO) was added to the control cells in each well. The plates were incubated at 37° C. in the CO2 incubator for 72 hours. At the end of day 3, the culture medium was carefully removed without disturbing the cells, and replaced by 100 μL of fresh cell medium. 10 μL of MTT reagent was added to each well and the plates were incubated again in the CO2 incubator at 37° C. for 4 hours. 100 μL of SDS solubilising reagent (from Boehringer Mannheim) was added to each well. The plate was allowed to stand overnight in the CO2 incubator and read by ELISA Reader (EL800, Bio-Tek Instruments, Inc.) at a wavelength of 570 nm. The percent cell viability was calculated according to the equation below: 100% (absorption of the control cells-absorption of the treated cells)/absorption of the control cells. A second set of experiments were carried out showing how the compounds in the formulations of the invention act in synergy with one another. The experimental results differ slightly from those reported above as the experimental work was carried out in a different laboratory and under slightly different conditions. In the second set of experiments the MTT reagent kit was purchased from Sigma-Aldridge in the UK and, due to time constraints; the cells were only incubated overnight prior to being treated with the drugs. The cell lines were also of different origin (the second set being obtained directly from Dr Marianne Poruch of the NIH, Bethesda Md., USA) and may have been subjected to different conditions during storage.
(Formazan colour is commonly taken as a measure of viable cells.)

The test system of another test is PTX10. Described as above. Particulars: Homo sapiens, PTX10 (taxol-resistant). As to the method: as §1

A word on the IC50: it is the concentration that inhibits the measured activity by half. As to `COc1c(O)cc(O)c2c(=O)cc(-c3ccccc3)oc12` [Formula III, wogonin], in test [1], the “relative sensitivity of the cell lines (dose-response curves, antiproliferative activity)” value (“relative sensitivity of the cell lines” below) is reported as “PTX-10 cell line is slightly more sensitive”. Also, the IC50 in the test with A2780 was 670 ± 230 nM; in the test on PTX10, 590 ± 380 nM.
Regarding `O=C(/C=C/c1ccc(O)cc1)c1ccc(O)cc1O` [Formula V, isoliquiritigenin], in test [1], the “relative sensitivity of the cell lines” value was “PTX-10 cell line is more sensitive”. Besides, the IC50 with A2780 was found to be 2400 ± 420 nM; in the test with PTX10 it was 300 ± 130 nM.
Consider `C=C1C(=O)[C@]23[C@H](O)[C@H]1CC[C@H]2[C@@]12CO[C@]3(O)[C@@H](O)[C@@H]1C(C)(C)CC[C@@H]2O` [Formula I, oridonin], for which the “relative sensitivity of the cell lines” value in test [1] is recorded as “A2780 cell line is more sensitive”. Further, the IC50 was determined as 810 ± 130 nM in the test on A2780 and 4720 ± 3700 nM in the test on PTX10.
